≈ marks a conversion by molar mass, not a printed value.
Key:
[1] = test system: Swiss female albino mice; test: Oral and intraperitoneal acute toxicity in mice (LD50, Probits method); format: in vivo; details: mice
Description: 20 Swiss female albino mice are used for this test of the average weight of 20 g (±2), coming from Nossan breeding .
Cages: in Makrolon® with saw dust litter, Number of animals per cage: 5 Acclimation period: 1 week Temperature: 22°C (± 2°C) Humidity : 60%, Diet: pellets for mice produced by Nossan firm, Water ad libitum Fast before the treatment: 16 hours
Oral by gastric route and intraperitoneal.
The substances to be studied: EU11100, EU11102, EU11103, EU11104 are treated with 0.5% carboxymethylcellulose in spring water, for the oral administration, whereas the same substances are intraperitoneally administered in the form of a physiological solution .
For each of the above mentioned substances, a mother suspension is prepared having a concentration in the active ingredient of 250 mg/ml for the oral administration, and analogously a mother suspension is prepared for the intraperitoneal administration having a concentration of the desired active principle of 100 mg/ml.
The following doses are used • a) oral route: 5000 mg/kg • b) intraperitoneal route : 2000 mg/kg
If mortality is observed at the above mentioned doses, other doses are administered in order to obtain a dose-response curve.
5 animals are used for every utilized concentration.
After the administration of the above substances the animals are kept under observation for 14 days , during which the mortality and the behaviour is observed.
LD₅₀ is determined on the base of the cumulative mortality observed in the successive 14 days after the administration by using the Probits method.

[2] = test system: Helicobapter pylori; test: Inhibition halos of the bacterial growth (impregnated disks on agar); format: cell-based; details: for activity against the Helicobapter pylori strains used: 10 strains; for Inhibition halo (mm), Average: average of 10 strains
Description: Comparison substance: Metronidazole Solubilization of the substances : All the substances to be studied are dissolved at room temperature in DMSO.
Some commercially available antibiogram disks are so impregnated with the above mentioned compounds that each disk has concentration equal to 10, 1, 0.1, 0.01 µg.
10 strains of Helicobapter pylori are used of recent clinical isolation.
Columbia Blood Agar Base is used, containing 5% of defibrinated horse blood, 2 % of calf serum, 2 vials of Vitox per liter of medium and Vancomicine (10 µg/ml) Trimetoprim lactate(5 µg/ml) and Polimixin B (2.5 U/ml).
0.1 ml of a suspension of the different used strains are uniformly distributed onto Petri plates, containing 20 ml of Columbia Blood Agar base, obtained by taking a sample, by means of a platinum loop, of different colonies from a 48 hours culture, grown in anaerobiosis jars with "Gas Pack", without a catalyst and diluted into a physiological solution.
4 disks per plate, previously impregnated with the substances under examination, are then placed onto the agar layer of each plate.
After 48 hours of anaerobiosis incubation, as above described, the inhibition halos of the bacterial growth, produced by the different activity of the substances inside the agar, are evaluated.

[3] = test system: Helicobapter pylori; test: Minimal inhibiting concentration (agar dilution); format: cell-based
Description: Substances under examination: EU11100, EU11102, EU11103, EU11104. Comparison substance: Metronidazole Solubilization of the substances: All the substances to be studied are dissolved at room temperature in DMSO. […] 10 strains of Helicobapter pylori are used of recent clinical isolation […] The sowing of the bacteria, prepared as described in the preceding test is carried out by means a "multi-point inoculator". After 48 hours incubation under the condition described in the preceding test, the plates are examined and the Minimal Inhibiting Concentration is evaluated, namely that dose corresponding to growth absence.

Compound: Cc1cc(C(O)c2ncc([N+](=O)[O-])n2C)c(O)c(C(C)(C)C)c1 (stereo not shown) [EU11103, 5-nitro-1-methyl-imidazolyl-3-terbutyl-2-hydroxy-5 methyl-phenyl-carbinol]
- toxicity when intraperitoneally administered ([1]; intraperitoneal, 2000 mg/kg): not toxic
- toxicity when orally administered ([1]; oral, 5000 mg/kg): not toxic
- activity against the Helicobapter pylori strains used ([2]; 0.1 µg/disk): active against 4 out of 10 strains
- activity against the Helicobapter pylori strains used ([2]; 1 µg/disk): active against all the Helicobapter pylori used
- activity against the Helicobapter pylori strains used ([2]; disk test): active against all the Helicobapter pylori strains used
- Inhibition halo (mm), Average ([2]; 1 µg/disk): 26.7 mm
- Inhibition halo (mm), Average ([2]; 10 µg/disk): 36.6 mm
- Inhibition halo (mm) at the concentration (µg/disk) ([2]; strain 1, 0.01 µg/disk): 0 mm
- Inhibition halo (mm) at the concentration (µg/disk) ([2]; strain 1, 1 µg/disk): 30 mm
- Inhibition halo (mm) at the concentration (µg/disk) ([2]; strain 1, 10 µg/disk): 40 mm
- Inhibition halo (mm) at the concentration (µg/disk) ([2]; strain 2, 0.01 µg/disk): 0 mm
- Inhibition halo (mm) at the concentration (µg/disk) ([2]; strain 2, 0.1 µg/disk): 0 mm
- Inhibition halo (mm) at the concentration (µg/disk) ([2]; strain 3, 0.01 µg/disk): 0 mm
- Inhibition halo (mm) at the concentration (µg/disk) ([2]; strain 3, 0.1 µg/disk): 0 mm
- Inhibition halo (mm) at the concentration (µg/disk) ([2]; strain 3, 1 µg/disk): 24 mm
- Inhibition halo (mm) at the concentration (µg/disk) ([2]; strain 3, 10 µg/disk): 35 mm
- Inhibition halo (mm) at the concentration (µg/disk) ([2]; strain 4, 0.01 µg/disk): 0 mm
- Inhibition halo (mm) at the concentration (µg/disk) ([2]; strain 4, 0.1 µg/disk): 20 mm
- Inhibition halo (mm) at the concentration (µg/disk) ([2]; strain 4, 10 µg/disk): 44 mm
- Inhibition halo (mm) at the concentration (µg/disk) ([2]; strain 5, 0.01 µg/disk): 0 mm
- Inhibition halo (mm) at the concentration (µg/disk) ([2]; strain 5, 0.1 µg/disk): 0 mm
- Inhibition halo (mm) at the concentration (µg/disk) ([2]; strain 5, 1 µg/disk): 17 mm
- Inhibition halo (mm) at the concentration (µg/disk) ([2]; strain 5, 10 µg/disk): 22 mm
- Inhibition halo (mm) at the concentration (µg/disk) ([2]; strain 6, 0.01 µg/disk): 0 mm
- Inhibition halo (mm) at the concentration (µg/disk) ([2]; strain 6, 1 µg/disk): 32 mm
- Inhibition halo (mm) at the concentration (µg/disk) ([2]; strain 6, 10 µg/disk): 43 mm
- Inhibition halo (mm) at the concentration (µg/disk) ([2]; strain 7, 0.01 µg/disk): 0 mm
- Inhibition halo (mm) at the concentration (µg/disk) ([2]; strain 7, 0.1 µg/disk): 0 mm
- Inhibition halo (mm) at the concentration (µg/disk) ([2]; strain 7, 1 µg/disk): 20 mm
- Inhibition halo (mm) at the concentration (µg/disk) ([2]; strain 7, 10 µg/disk): 28 mm
- Inhibition halo (mm) at the concentration (µg/disk) ([2]; strain 8, 0.01 µg/disk): 0 mm
- Inhibition halo (mm) at the concentration (µg/disk) ([2]; strain 8, 0.1 µg/disk): 21 mm
- Inhibition halo (mm) at the concentration (µg/disk) ([2]; strain 8, 1 µg/disk): 37 mm
- Inhibition halo (mm) at the concentration (µg/disk) ([2]; strain 8, 10 µg/disk): 45 mm
- Inhibition halo (mm) at the concentration (µg/disk) ([2]; strain 9, 0.01 µg/disk): 0 mm
- Inhibition halo (mm) at the concentration (µg/disk) ([2]; strain 9, 0.1 µg/disk): 0 mm
- Inhibition halo (mm) at the concentration (µg/disk) ([2]; strain 9, 1 µg/disk): 22 mm
- Inhibition halo (mm) at the concentration (µg/disk) ([2]; strain 9, 10 µg/disk): 33 mm
- Inhibition halo (mm) at the concentration (µg/disk) ([2]; strain 10, 0.01 µg/disk): 0 mm
- Inhibition halo (mm) at the concentration (µg/disk) ([2]; strain 10, 0.1 µg/disk): 0 mm
- Inhibition halo (mm) at the concentration (µg/disk) ([2]; strain 10, 1 µg/disk): 24 mm
- MIC50 ([3]; 10 strains): 0.03 µg/mL (≈ 0.0939 µM)
- MIC90 ([3]; 10 strains): 0.06 µg/mL (≈ 0.188 µM)
- MIC range ([3]; 10 strains): 0.015 to 0.016 µg/mL
- MIC values ([3]; in words, compared with Metronidazole): very low MIC values
- MIC ([3]; strain 1): 0.06 µg/mL (≈ 0.188 µM)
- MIC ([3]; strain 2): 0.06 µg/mL (≈ 0.188 µM)
- MIC ([3]; strain 3): 0.03 µg/mL (≈ 0.0939 µM)
- MIC ([3]; strain 4): 0.03 µg/mL (≈ 0.0939 µM)
- MIC ([3]; strain 5): 0.03 µg/mL (≈ 0.0939 µM)
- MIC ([3]; strain 6): 0.03 µg/mL (≈ 0.0939 µM)
- MIC ([3]; strain 7): 0.06 µg/mL (≈ 0.188 µM)
- MIC ([3]; strain 8): 0.06 µg/mL (≈ 0.188 µM)
- MIC ([3]; strain 9): 0.03 µg/mL (≈ 0.0939 µM)
- MIC ([3]; strain 10): 0.015 µg/mL (≈ 0.047 µM)
